“And” between values parts separate entries of the source, which are not always exact repeats. Equal values may be shown once. Toxic doses and inconclusive results are not listed.
Test system: P388 leukemia ip, CD2F1 mice, survival T/C
Test: NCI In Vivo Anticancer Drug Screen. Data for tumor model P388 Leukemia (intraperitoneal) in CD2F1 (CDF1) mice
Conditions: endpoint: median survival time, higher = longer survival
Method in brief: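 Mice carrying the transplanted tumor received test compound or vehicle. Survival was recorded in each group, and the value is the treated-group measurement divided by that of the vehicle-treated control group.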

[1] = dose: 50.0 mg/kg/injection, schedule: Q01DX009 (ip), vehicle: Klucel (hydroxypropylcellulose) (HPC)
[2] = dose: 100.0 mg/kg/injection, schedule: Q01DX009 (ip), vehicle: Klucel (hydroxypropylcellulose) (HPC)
[3] = dose: 200.0 mg/kg/injection, schedule: Q01DX009 (ip), vehicle: Klucel (hydroxypropylcellulose) (HPC)
[4] = dose: 60.0 mg/kg/injection, schedule: Q01DX005 (ip), vehicle: saline with Tween-80
[5] = dose: 120.0 mg/kg/injection, schedule: Q01DX005 (ip), vehicle: saline with Tween-80
[6] = dose: 100.0 mg/kg/injection, schedule: Q01DX009 (ip), vehicle: saline with Tween-80
[7] = dose: 200.0 mg/kg/injection, schedule: Q01DX009 (ip), vehicle: saline with Tween-80
[8] = dose: 12.5 mg/kg/injection, schedule: Q01DX009 (ip), vehicle: saline with Tween-80
[9] = dose: 25.0 mg/kg/injection, schedule: Q01DX009 (ip), vehicle: saline with Tween-80
[10] = dose: 50.0 mg/kg/injection, schedule: Q01DX009 (ip), vehicle: saline
[11] = dose: 100.0 mg/kg/injection, schedule: Q01DX009 (ip), vehicle: saline
[12] = dose: 240.0 mg/kg/injection, schedule: Q01DX005 (ip), vehicle: saline with Tween-80
[13] = dose: 50.0 mg/kg/injection, schedule: Q01DX009 (ip), vehicle: saline with Tween-80
[14] = dose: 50.0 mg/kg/injection, schedule: Q01DX005 (ip), vehicle: Klucel (hydroxypropylcellulose) (HPC)
[15] = dose: 100.0 mg/kg/injection, schedule: Q01DX005 (ip), vehicle: Klucel (hydroxypropylcellulose) (HPC)
[16] = dose: 200.0 mg/kg/injection, schedule: Q01DX005 (ip), vehicle: Klucel (hydroxypropylcellulose) (HPC)
[17] = dose: 200.0 mg/kg/injection, schedule: Q01DX009 (ip), vehicle: saline

## CSc1c(C(C)(C)O)cc(C(C)(C)C)cc1C(C)(C)O
[1]
  T/C: 93 % of control
[2]
  T/C: 93 % of control
[3]
  T/C: 94 % of control

## COc1cc(C(CC(C)=O)c2cc3c(cc2OC(C)=O)OCO3)cc(OC)c1OC(C)=O (configuration not stated)
[4]
  T/C: 105 % of control
[5]
  T/C: 89 % of control

## CCCCCCCCCCCC(=O)Nc1ncnc2nc[nH]c12
[1]
  T/C: 93 % of control
[2]
  T/C: 95 % of control
[3]
  T/C: 98 % of control
dose: 400.0 mg/kg/injection, schedule: Q01DX009 (ip), vehicle: Klucel (hydroxypropylcellulose) (HPC)
  T/C: 104 % of control

## C=CCNSc1cccc([N+](=O)[O-])c1
dose: 6.25 mg/kg/injection, schedule: Q01DX009 (ip), vehicle: Klucel (hydroxypropylcellulose) (HPC)
  T/C: 121 % of control
dose: 12.5 mg/kg/injection, schedule: Q01DX009 (ip), vehicle: Klucel (hydroxypropylcellulose) (HPC)
  T/C: 120 % of control
dose: 25.0 mg/kg/injection, schedule: Q01DX009 (ip), vehicle: Klucel (hydroxypropylcellulose) (HPC)
  T/C: 121 % of control
[1]
  T/C: 102 % of control and 103 % of control and 115 % of control

## CCCn1c(O)c(C=N)c(=O)n(CCC)c1=O
[6]
  T/C: 95 % of control
[7]
  T/C: 100 % of control
dose: 400.0 mg/kg/injection, schedule: Q01DX009 (ip), vehicle: saline with Tween-80
  T/C: 100 % of control

## CCOC(=O)C1C(c2ccc(N(C)C)cc2)c2cc3c(cc2OC1(C)N1CCCC1)OCO3 (configuration not stated)
dose: 60.0 mg/kg/injection, schedule: Q01DX005 (ip), vehicle: Klucel (hydroxypropylcellulose) (HPC)
  T/C: 100 % of control
dose: 120.0 mg/kg/injection, schedule: Q01DX005 (ip), vehicle: Klucel (hydroxypropylcellulose) (HPC)
  T/C: 96 % of control
dose: 240.0 mg/kg/injection, schedule: Q01DX005 (ip), vehicle: Klucel (hydroxypropylcellulose) (HPC)
  T/C: 93 % of control

## COc1cc(C=Nc2cccc(Br)c2)ccc1N(CCCl)CCCl
dose: 3.3 mg/kg/injection, schedule: Q01DX009 (ip), vehicle: saline with Tween-80
  T/C: 154 % of control
dose: 5.0 mg/kg/injection, schedule: Q01DX009 (ip), vehicle: saline with Tween-80
  T/C: 200 % of control
dose: 5.56 mg/kg/injection, schedule: Q01DX009 (ip), vehicle: saline with Tween-80
  T/C: 209 % of control
dose: 8.33 mg/kg/injection, schedule: Q01DX009 (ip), vehicle: saline with Tween-80
  T/C: 186 % of control
dose: 11.0 mg/kg/injection, schedule: Q04DX003 (ip), vehicle: other
  T/C: 165 % of control
[8]
  T/C: 204 % of control and 227 % of control
dose: 16.5 mg/kg/injection, schedule: Q04DX003 (ip), vehicle: other
  T/C: 184 % of control
dose: 18.7 mg/kg/injection, schedule: Q01DX009 (ip), vehicle: saline with Tween-80
  T/C: 186 % of control
[9]
  T/C: 166 % of control
dose: 25.0 mg/kg/injection, schedule: Q04DX003 (ip), vehicle: other
  T/C: 230 % of control
dose: 37.5 mg/kg/injection, schedule: Q04DX003 (ip), vehicle: other
  T/C: 107 % of control

## O=C1CCCC2OC12 (configuration not stated)
dose: 100.0 mg/kg/injection, schedule: Q04DX002 (ip), vehicle: saline
  T/C: 110 % of control
dose: 200.0 mg/kg/injection, schedule: Q04DX002 (ip), vehicle: saline
  T/C: 112 % of control

## O=C1C(c2ccccc2)=C(c2ccc(Br)cc2)C2(c3ccc(Br)cc3)CC12c1ccccc1 (configuration not stated)
dose: 50.0 mg/kg/injection, schedule: Q01DX005 (ip), vehicle: Klucel + Tween-80
  T/C: 91 % of control
dose: 100.0 mg/kg/injection, schedule: Q01DX005 (ip), vehicle: Klucel + Tween-80
  T/C: 88 % of control

## CNC(=O)Nc1ccncc1
dose: 12.5 mg/kg/injection, schedule: Q01DX009 (ip), vehicle: saline
  T/C: 112 % of control
dose: 25.0 mg/kg/injection, schedule: Q01DX009 (ip), vehicle: saline
  T/C: 102 % of control
[10]
  T/C: 100 % of control

## O=[N+]([O-])c1ccc(Nc2ccc[n+]3c([O-])csc23)nc1
[10]
  T/C: 98 % of control
[6]
  T/C: 89 % of control
[11]
  T/C: 102 % of control
[7]
  T/C: 93 % of control

## CN(c1ccccc1)S(=O)(=O)c1ccc2ccccc2c1O
dose: 100.0 mg/kg/injection, schedule: Q01DX001 (ip), vehicle: saline with Tween-80
  T/C: 101 % of control
dose: 200.0 mg/kg/injection, schedule: Q01DX001 (ip), vehicle: saline with Tween-80
  T/C: 100 % of control
dose: 400.0 mg/kg/injection, schedule: Q01DX001 (ip), vehicle: saline with Tween-80
  T/C: 91 % of control

## O=C1c2ccccc2C(=O)c2c1cc1c(c2[N+](=O)[O-])OCO1
dose: 30.0 mg/kg/injection, schedule: Q01DX005 (ip), vehicle: saline with Tween-80
  T/C: 99 % of control and 107 % of control
[4]
  T/C: 99 % of control and 112 % of control and 113 % of control
[5]
  T/C: 99 % of control and 118 % of control and 120 % of control
[12]
  T/C: 118 % of control and 96 % of control

## O=[N+]([O-])c1ccc(N=Nc2ccccc2)cc1
dose: 100.0 mg/kg/injection, schedule: Q04DX003 (ip), vehicle: saline with Tween-80
  T/C: 109 % of control
dose: 200.0 mg/kg/injection, schedule: Q04DX003 (ip), vehicle: saline with Tween-80
  T/C: 100 % of control
dose: 400.0 mg/kg/injection, schedule: Q04DX003 (ip), vehicle: saline with Tween-80
  T/C: 100 % of control

## N#CC(C(=O)C(=O)Nc1ccc(Cl)cc1)c1c(Cl)cccc1Cl (configuration not stated)
dose: 100.0 mg/kg/injection, schedule: Q04DX002 (ip), vehicle: saline with Tween-80
  T/C: 105 % of control
dose: 200.0 mg/kg/injection, schedule: Q04DX002 (ip), vehicle: saline with Tween-80
  T/C: 108 % of control
dose: 400.0 mg/kg/injection, schedule: Q04DX002 (ip), vehicle: saline with Tween-80
  T/C: 97 % of control

## O=C(CN1CCN(c2ccccc2)CC1)n1ccnc1
[4]
  T/C: 95 % of control
[5]
  T/C: 97 % of control
[12]
  T/C: 100 % of control

## CC(C(=O)O)c1ccc2c(c1)Cc1ccccc1-2 (configuration not stated)
[8]
  T/C: 108 % of control
[9]
  T/C: 106 % of control
[13]
  T/C: 105 % of control and 86 % of control

## Cc1nc2c(cnn2C)c(=O)n1Cc1ccccc1
[14]
  T/C: 104 % of control
[15]
  T/C: 97 % of control
[16]
  T/C: 103 % of control

## C1CN1c1nnc(N2CC2)nn1
dose: 7.5 mg/kg/injection, schedule: Q01DX005 (ip), vehicle: saline
  T/C: 178 % of control
dose: 30.0 mg/kg/injection, schedule: Q01DX005 (ip), vehicle: saline
  T/C: 260 % of control

## O=C(NP(=O)(O)NC(Cc1ccccc1)C(=O)O)OCc1ccccc1 (configuration not stated)
dose: 50.0 mg/kg/injection, schedule: Q01DX005 (ip), vehicle: saline
  T/C: 106 % of control
dose: 100.0 mg/kg/injection, schedule: Q01DX005 (ip), vehicle: saline
  T/C: 109 % of control
dose: 200.0 mg/kg/injection, schedule: Q01DX005 (ip), vehicle: saline
  T/C: 102 % of control

## CC(CC(=O)c1ccccc1)=NCCCCCN=C(C)CC(=O)c1ccccc1
[13]
  T/C: 100 % of control
[6]
  T/C: 102 % of control
[7]
  T/C: 100 % of control

## CCOCCC(O)CC (configuration not stated)
[11]
  T/C: 90 % of control
dose: 100.0 mg/kg/injection, schedule: Q04DX003 (ip), vehicle: saline
  T/C: 122 % of control
[17]
  T/C: 95 % of control
dose: 200.0 mg/kg/injection, schedule: Q04DX003 (ip), vehicle: saline
  T/C: 104 % of control
dose: 400.0 mg/kg/injection, schedule: Q01DX009 (ip), vehicle: saline
  T/C: 104 % of control

## CC/C(=N\NS(=O)(=O)c1ccc(C)cc1)c1ccc(Br)c(Br)c1
[10]
  T/C: 96 % of control
[11]
  T/C: 100 % of control
[17]
  T/C: 92 % of control

## Nc1nc(C2CCCCC2)c(Br)c(=O)[nH]1
[14]
  T/C: 97 % of control
[15]
  T/C: 92 % of control
[16]
  T/C: 92 % of control

## N#CC1C(=O)NC(=O)C(C#N)C1C1C(=O)NC2CCCCC21 (configuration not stated)
[13]
  T/C: 114 % of control
[6]
  T/C: 99 % of control
[7]
  T/C: 112 % of control

## Nc1nc(N)c(N=O)c(Nc2ccccc2)n1
[13]
  T/C: 97 % of control
[6]
  T/C: 99 % of control
[7]
  T/C: 96 % of control

## O=C(c1ccccc1)N1OC2C=CC1C2 (configuration not stated)
[8]
  T/C: 100 % of control
[9]
  T/C: 89 % of control
[13]
  T/C: 100 % of control and 103 % of control

## CC1=NN(C2=NS(=O)(=O)c3ccccc3N2C)C(=O)C1
[4]
  T/C: 86 % of control
[5]
  T/C: 90 % of control
[12]
  T/C: 90 % of control

## Cn1c(C(Cl)Cl)nc2ccccc2c1=O
dose: 12.5 mg/kg/injection, schedule: Q04DX003 (ip), vehicle: Klucel (hydroxypropylcellulose) (HPC)
  T/C: 95 % of control
dose: 25.0 mg/kg/injection, schedule: Q04DX003 (ip), vehicle: Klucel (hydroxypropylcellulose) (HPC)
  T/C: 104 % of control
dose: 50.0 mg/kg/injection, schedule: Q04DX003 (ip), vehicle: Klucel (hydroxypropylcellulose) (HPC)
  T/C: 104 % of control
